These results are taken from patent publication US20140081017A1, “Histone Deacetylase Inhibitors for Enhancing Activity of Antifungal Agents” (METHYLGENE INC., priority 2012, published 2014).

Assay [1] has as its system Candida albicans. The assay is described as follows: Minimal Inhibitory Concentration (MIC) assay, broth microdilution per CLSI.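 Note: two read times 24 hr and 48 hr of incubation.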 The class given is cell-based. To be noted: Candida albicans, read-out: Minimum Inhibitory Concentrations against Yeast Isolates, Candida albicans. As to the method:
(§1) The in vitro activities of the inventive compounds (compound(s) herein) against fungi and/or yeasts were determined with isolates Candida albicans, Candida glabrata and Candida parapsilosis. The comparator compounds included fluconazole, caspofungin and amphotericin B.
(§2) The compounds were supplied as a powder, and were dissolved in dimethylsulfoxide (DMSO) the day of assay. Stock solutions were prepared at 10 mg/mL and diluted to a starting stock concentration of 2.56 mg/mL. Amphotericin B was dissolved in DMSO to a stock concentration of 2.56 mg/mL. Fluconazole was dissolved in deionized water to a stock concentration of 2.56 mg/mL. Caspofungin was received as a stock solution of 3.2 mg/mL in DMSO and was diluted to a starting stock concentration of 2.56 mg/mL.
(§3) The test organisms and reference isolates were streaked for isolation on Sabouraud agar medium (yeasts) or potato dextrose agar (fungi). Colonies were picked by swab from the medium and resuspended in the appropriate broth containing cryoprotectant. The suspensions were aliquoted into cryogenic vials and maintained at −80° C.
(§4) Prior to testing, the yeast isolates were streaked from the frozen vials onto Sabouraud dextrose agar. The plates were incubated overnight at 35° C. The fungal isolate was grown on potato dextrose agar slants and was incubated for 7-10 days at room temperature.
(§5) Both yeast and fungal isolates were tested in RPMI medium buffered with 0.165 M MOPS (3-(N-morpholino)propanesulfonic acid). The pH of the medium was adjusted to 7.0 with 1 N NaOH. The medium was sterile filtered using a 0.2 um PES (polyethersulfone) filter and stored at 4° C. until used.
(§6) The MIC assay method followed the procedure described by the Clinical and Laboratory Standards Institute (CLSI; 1, 2, 3) and employed automated liquid handlers to conduct serial dilutions and liquid transfers. Automated liquid handlers included the Multidrop 384 (Labsystems, Helsinki, Finland), Biomek 2000 and Biomek FX (Beckman Coulter, Fullerton Calif.). The wells in columns 2-12 in standard 96-well microdilution plates (Costar 3795) were filled with 150 ul of 100% DMSO. These would become the ‘mother plates’ from which ‘daughter’ or test plates would be prepared. The compounds (300 uL at 40× the desired top concentration in the test plates) were dispensed into the appropriate well in Column 1 of the mother plates. The Biomek 2000 was used to make serial 1:1 dilutions through Column 11 in the “mother plate”. The wells of Column 12 contained no compounds and were the organism growth control wells.
(§7) The daughter plates were loaded with 185 uL per well of RPMI described above using the Multidrop 384. The daughter plates were prepared using the Biomek FX which transferred 5 μL of the compound solution from each well of a mother plate to the corresponding well of the daughter plate in a single step.
(§8) Standardized inoculum of each organism was prepared per CLSI methods. For yeast isolates, colonies were picked from the streak plate and a suspension was prepared in 0.85% saline. For the fungal isolate, 1 mL of 0.85% saline was dispensed onto the potato dextrose agar slant that had been inoculated 7-10 days previously. Using a swab, a suspension of the fungus was made. After a short time to allow the heavy particles to settle out, a small quantity of the supernatant was dispensed into 0.85% saline and the suspension adjusted to equal a 0.5 McFarland turbidity standard. Both yeast and fungal isolates were diluted 1:100 in RPMI and then transferred to compartments of sterile reservoirs divided by length (Beckman Coulter). The Biomek 2000 was used to inoculate the plates. Daughter plates were placed on the Biomek 2000 work surface reversed so that inoculation took place from low to high compound concentration. The Biomek 2000 delivered 10 μL of standardized inoculum into each well. Thus, the wells of the daughter plates ultimately contained 185 uL of RPMI, 5 uL of the compound solution, and 10 uL of inoculum. […]

Assay [2] concerns Candida glabrata. Described as above. The class given is cell-based. The settings on record: Nakaseomyces glabratus, read-out: Minimum Inhibitory Concentrations against Yeast Isolates, Candida glabrata. As to the method: as §1, §2, §3, §4, §5, §6, §7, §8;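 note: two read times 24 hr and 48 hr of incubation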
Assay [3] has as its system Candida parapsilosis. The assay is described as above. The class given is cell-based. The settings on record: Lodderomyces parapsilosis, read-out: Minimum Inhibitory Concentrations against Yeast Isolates, Candida parapsilosis. On the procedure: as §1, §2, §3, §4, §5, §6, §7, §8;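 note: two read times 24 hr and 48 hr of incubation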
Assay [4] concerns C. glabrata. The assay is described as follows: Checkerboard FIC assay in combination with fluconazole (MIC alone and in combination, FICI). It counts as cell-based, Candida glabrata. To be noted: for MIC: Nakaseomyces glabratus. As to the method: The ability of the compounds to synergize with azoles against C. glabrata was evaluated by the checkerboard assay, a common laboratory method used to evaluate synergy, antagonism, and indifference using fractional inhibitory concentrations (FICs) and FIC indices (FICI).
The test compounds were supplied as a powder and dissolved in dimethylsulfoxide (DMSO) on the day of assay. Stock solutions were prepared at 640 ug/mL. Fluconazole was dissolved in deionized water to a stock concentration of 320 ug/mL. All test articles were in solution under these conditions.
as §3, §4, §5
FIC values were determined using a broth microdilution method (CLSI; 1, 3). To prepare the test plates, automated liquid handlers (Multidrop 384, Labsystems, Helsinki, Finland; Biomek 2000 and Biomek FX, Beckman Coulter, Fullerton Calif.) were used to conduct serial dilutions and liquid transfers.
The wells of standard 96-well microdilution plates (Costar 3795) were filled with 150 uL of DMSO in columns 2-12. Three hundred microliters of each test compound was added to each well in Column 1 of the plates. The Biomek 2000 was used to make eleven 2-fold serial dilutions in each of these “test compound mother” plates. The wells of the “fluconazole mother plates” were filled with 150 uL of sterile water in rows B-H. Row A of these plates was filled with 300 uL of the fluconazole stock solution. Serial 2-fold dilutions were then prepared from top to bottom by hand, using a multichannel pipette in rows B-G. The “daughter plates” were loaded with 180 uL of RPMI using the Multidrop 384. The Biomek FX was used to transfer 5 uL of compound solution from each well of a fluconazole mother plate to the corresponding well in all of the daughter plates in a single step. Then the Biomek FX was used to transfer 5 uL of compound solution from each well of a test compound mother plate to the corresponding well of the corresponding test compound daughter plate (already containing fluconazole at the appropriate concentrations) in a single step. Row H and Column 12 each contained serial dilutions of the test agent and fluconazole alone, respectively, for determination of the MIC.
Standardized inoculum of each organism was prepared per CLSI methods (CLSI; 1, 3). For yeast isolates, colonies were picked from the primary plate and a suspension was prepared in 0.85% saline to equal a 0.5 McFarland turbidity standard. For the fungal isolate, 1 mL of 0.85% saline was dispensed onto a potato dextrose agar slant onto which the isolate had been inoculated 7-10 days previously. Using a swab, a suspension of the fungus was made. After a short time to allow the heavy particles to settle out, a small quantity of the supernatant was dispensed into 0.85% saline and the suspension was adjusted to equal a 0.5 McFarland turbidity standard. Both yeast and fungal isolates were diluted 1:100 in RPMI and then transferred to compartments of sterile reservoirs divided by length (Beckman Coulter). The Biomek 2000 was used to inoculate the plates. […]

Setting [5] is: 24 hr reading (first value of cell 24 hr/48 hr).
[6] abbreviates: 48 hr reading (second value of cell 24 hr/48 hr).
Setting [7] is: C. glabrata, FICI calculated using a fluconazole MIC of 16 μg/mL.
[8] abbreviates: C. glabrata, FICI using a fluconazole MIC of 128 μg/mL.

In brackets after ≈: the same amount, converted by molar mass. Like-named read-outs stand apart in the source and are kept apart here.

Regarding `O=C(Cc1ccc(CCCCc2ccc(C(=O)N3CCOCCOCCOCCOCCOCC3)cc2)cc1)NO` [Example 24, 2-(4-(4-(4-(1,4,7,10,13-pentaoxa-16-azacyclooctadecane-16-carbonyl)phenyl)butyl)phenyl)-N-hydroxyacetamide], the MIC in assay [1] (setting [5]) was above 64 µg/mL; in assay [1] (setting [6]) it was above 64 µg/mL; in assay [2] (setting [5]), 16 µg/mL (≈ 27.9 µM); in assay [2] (setting [6]), 64 µg/mL (≈ 112 µM); in assay [3] (setting [5]), above 64 µg/mL; in assay [3] (setting [6]), above 64 µg/mL. The MIC is above 16 µg/mL in assay [4] (MIC of the example compound alone against C. glabrata in the checkerboard assay, approximately 48 hr, read-out: Methylgene MIC) and above 16 µg/mL in assay [4] (test compound alone, C. glabrata, approx. 48 hr at 35° C., read-out: Compound MIC). The “FICI of combination resulting in fluconazole MIC of: 2 ug/mL” value in assay [4] (setting [7]) is reported as 0.313. In addition, in assay [4] (setting [7]), the “FICI of combination resulting in fluconazole MIC of: 4 ug/mL” value is on record as 0.250. The “FICI of combination resulting in fluconazole MIC of: 8 ug/mL” value in assay [4] (setting [7]) is reported as 0.313. Moreover, in assay [4] (setting [8]), the “FICI of combination resulting in fluconazole MIC of: 2 ug/mL (value in parenthesis)” value was found to be 0.266. Also, the “FICI of combination resulting in fluconazole MIC of: 4 ug/mL (value in parenthesis)” value in assay [4] (setting [8]) is listed as 0.156. Further, the “FICI of combination resulting in fluconazole MIC of: 8 ug/mL (value in parenthesis)” value in assay [4] (setting [8]) turned out to be 0.125. In addition, the “Concentration of Methylgene compound to synergize fluconazole MIC to 2 ug/mL” value in assay [4] (in combination with fluconazole, C. glabrata, fluconazole MIC lowered to 2 ug/mL) was 8 µg/mL. In addition, in assay [4] (in combination with fluconazole, C. glabrata, fluconazole MIC lowered to 4 ug/mL), the “Concentration of Methylgene compound to synergize fluconazole MIC to 4 ug/mL” value turned out to be 4 µg/mL. For the same molecule, in assay [4] (in combination with fluconazole, C. glabrata, fluconazole MIC lowered to 8 ug/mL), the “Concentration of Methylgene compound to synergize fluconazole MIC to 8 ug/mL” value was 2 µg/mL.
